Source: ChEMBL document CHEMBL1649267, “Molecular epidemiology and mechanisms of carbapenem resistance in Pseudomonas aeruginosa” (2009)
≈ marks a conversion by molar mass, not a printed value.

Tests used:
Assay type in all cases: functional
Pseudomonas aeruginosa [1] = conditions: isolate Paebeta-18
Pseudomonas aeruginosa [2] = conditions: isolate Paebeta-27
Pseudomonas aeruginosa [3] = conditions: isolate Paebeta-15
Pseudomonas aeruginosa [4] = conditions: isolate Paebeta-03
Pseudomonas aeruginosa [5] = conditions: isolate Paebeta-24

Row | SMILES | MIC (Pseudomonas aeruginosa [1]) | MIC (Pseudomonas aeruginosa [2]) | MIC (Pseudomonas aeruginosa [3]) | MIC (Pseudomonas aeruginosa [4]) | MIC (Pseudomonas aeruginosa [5])
1 | CO/N=C(\C(=O)N[C@@H]1C(=O)N2C(C(=O)[O-])=C(C[N+]3(C)CCCC3)CS[C@H]12)c1csc(N)n1 | 128 µg/mL (≈ 266 µM) | 64 µg/mL (≈ 133 µM) | 128 µg/mL (≈ 266 µM) | 64 µg/mL (≈ 133 µM) | 64 µg/mL (≈ 133 µM)
2 | C[C@H]1[C@H](NC(=O)/C(=N\OC(C)(C)C(=O)O)c2csc(N)n2)C(=O)N1S(=O)(=O)O [AZTREONAM] | 128 µg/mL (≈ 294 µM) |  |  |  | 
